The subject of test [1] is APP. To be noted: cited from earlier work; for Aβ: literature.
Test [2] concerns AD mice. To be noted: cited from earlier work.
For test [3], the system named is PS-DKO cells. In words: Staining of lipid droplets with LipidTox Green. It is filed as cell-based, mouse. Particulars: BI 100 nM, desipramine 10 μM, GW4869 5 μM, 12-16 h, Gleevec 10 μM. On the procedure:
Quantification of total cholesterol and cholesteryl esters was performed using the Cholesterol/Cholesteryl Ester Quantitation kit from Calbiochem (428901). Staining of lipid droplets Staining of lipid droplets was performed using HCS LipidTox™ Deep Green neutral lipid stain (Invitrogen H34475) according to the manufacturer's instructions. Lipid droplet staining was quantified using ImageJ. The different values represent the product of the intensity and the area covered by the fluorescent signal above background in every cell examined.
Staining of lipid droplets was performed using HCS LipidTox™ Deep Green neutral lipid stain (Invitrogen H34475) according to the manufacturer's instructions. Lipid droplet staining was quantified using ImageJ. The different values represent the product of the intensity and the area covered by the fluorescent signal above background in every cell examined.

The target of test [4] is TRPML1 (Homo sapiens, UniProt Q9GZU1). Particulars: Shen, D. et al.; cited from earlier work.
Sequence of TRPML1 (Q9GZU1 whole entry, species assumed): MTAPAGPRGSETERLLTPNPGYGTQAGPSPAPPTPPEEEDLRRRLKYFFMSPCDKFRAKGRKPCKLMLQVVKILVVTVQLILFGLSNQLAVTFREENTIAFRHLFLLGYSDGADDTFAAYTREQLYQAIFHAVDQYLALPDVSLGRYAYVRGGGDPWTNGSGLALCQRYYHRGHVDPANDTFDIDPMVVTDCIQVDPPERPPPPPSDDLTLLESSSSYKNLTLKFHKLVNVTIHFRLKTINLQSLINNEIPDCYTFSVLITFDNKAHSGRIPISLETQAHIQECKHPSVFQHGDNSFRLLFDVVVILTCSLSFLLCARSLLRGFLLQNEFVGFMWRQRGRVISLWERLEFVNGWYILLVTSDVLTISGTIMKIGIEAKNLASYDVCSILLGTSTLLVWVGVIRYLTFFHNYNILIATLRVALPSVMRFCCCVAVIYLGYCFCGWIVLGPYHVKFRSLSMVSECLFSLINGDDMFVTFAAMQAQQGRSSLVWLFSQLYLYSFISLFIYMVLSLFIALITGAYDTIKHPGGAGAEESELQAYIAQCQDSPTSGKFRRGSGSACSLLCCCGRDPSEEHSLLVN
In test [5] the test system is γ-secretase. To be noted: A2A-AR antagonists; Lu, J. et al.; cited from earlier work.
In test [6] the test system is PS-DKO cells. In words: Seahorse analysis of mitochondrial respiration (OCR). It is filed as cell-based, mouse. Particulars: BI 100 nM, myriocin 5 μM, TAPI-1 5 μM, 12-16 h, Aβ40:Aβ42 10:1, 6 ng/ml. On the procedure: (§1) Respirometry of cultured cells was performed using the XF24e Extracellular Flux Analyzer (Seahorse Bioscience). Oxygen consumption was measured in basal conditions (Seahorse media with 25 mM glucose and 2 mM pyruvate) and after the sequential addition of 1 μM oligomycin (Complex V inhibitor), 0.75 μM FCCP (uncoupler) and 1 μM rotenone/1 μM antimycin A (Complex I and Complex III inhibitors respectively).
(§2) Respirometry of cultured cells was performed using the XF24e Extracellular Flux Analyzer (Seahorse Bioscience). Oxygen consumption was measured in basal conditions (Seahorse media with 25 mM glucose and 2 mM pyruvate) and after the sequential addition of 1 μM oligomycin (complex V inhibitor), 0.75 μM FCCP (uncoupler), and 1 μM rotenone/1 μM antimycin A (complex I and complex III inhibitors, respectively). All results were averages of five or more biological replicates. Every biological replicate consisted of three technical replicates. For every technical replicate, we plated equal number of cells (25,000 cell/well when MEFs were used, and 50,000 cells/well when human primary fibroblasts were analyzed). The number of cells was also counted after every respirometry assay to correct for cell death. All oxygen consumption (OCR) data were normalized by the number of viable cells or by protein quantity when isolated mitochondria were used.

Test [7] has as its system Aβ42:Aβ40 ratio. The experiment in a line: Aβ42:Aβ40 ratio (ELISA). It is filed as cell-based. Particulars: PS-mutant cells, desipramine. The procedure:
Detection of Aβ40/Aβ42 levels in cell media was performed by ELISA following manufacturer's instructions (WAKO ELISA kit 294-64701 for Aβ40 and 292-64501 for Aβ42).

In test [8] the test system is PS-DKO cells. In words: Lipidomic analyses of membranes. The format is cell-based, mouse. To be noted: PS-DKO cells; BI 100 nM or myriocin 5 μM. On the procedure: (§3) Lipid extracts were prepared via chloroform-methanol extraction, spiked with appropriate internal standards, and analyzed using a 6490 Triple Quadrupole LC/MS system (Agilent Technologies, Santa Clara, Calif.) as described previously (6, 7). Glycerophospholipids and sphingolipids were separated with normal-phase HPLC using an Agilent Zorbax Rx-Sil column (inner diameter 2.1×100 mm) under the following conditions: mobile phase A (chloroform:methanol:1 M ammonium hydroxide, 89.9:10:0.1, v/v) and mobile phase B (chloroform:methanol:water:ammonium hydroxide, 55:39.9:5:0.1, v/v); 95% A for 2 min, linear gradient to 30% A over 18 min and held for 3 min, and linear gradient to 95% A over 2 min and held for 6 min. Quantification of lipid species was accomplished using multiple reaction monitoring (MRM) transitions that were developed in earlier studies (6) in conjunction with referencing of appropriate internal standards: ceramide d18:1/17:0 and sphingomyelin d18:1/12:0 (Avanti Polar Lipids, Alabaster, Ala.).
as §3, with “Lipids were extracted from equal amounts of material (30 μg protein/sample). Lipid extracts” for “Lipid extracts”, “described previously (Chan et al., 2012). Glycerophospholipids and” for “described previously (6, 7). Glycerophospholipids and”, “hydroxide, 89.9:10:0.1, v/v/v) and mobile” for “hydroxide, 89.9:10:0.1, v/v) and mobile”, “hydroxide, 55:39.9:5:0.1, v/v/v); 95% A” for “hydroxide, 55:39.9:5:0.1, v/v); 95% A”, “earlier studies (Chan et al., 2012) in conjunction” for “earlier studies (6) in conjunction”, “Alabaster, Ala.). Values are represented as mole fraction with respect to total lipid (% molarity)” for “Alabaster, Ala.).”
Lipids were extracted from equal amounts of material (30 μg protein/sample). Lipid extracts were prepared via chloroform-methanol extraction, spiked with appropriate internal standards, and analyzed using a 6490 Triple Quadrupole LC/MS system (Agilent Technologies, Santa Clara, Calif.) as described previously (Chan et al, 2012). Glycerophospholipids and sphingolipids were separated with normal-phase HPLC using an Agilent Zorbax Rx-Sil column (inner diameter 2.1×100 mm) under the following conditions: mobile phase A (chloroform:methanol:1 M ammonium hydroxide, 89.9:10:0.1, v/v/v) and mobile phase B (chloroform:methanol:water:ammonium hydroxide, 55:39.9:5:0.1, v/v/v/v); 95% A for 2 min, linear gradient to 30% A over 18 min and held for 3 min, and linear gradient to 95% A over 2 min and held for 6 min. Quantification of lipid species was accomplished using multiple reaction monitoring (MRM) transitions that were developed in earlier studies (Chan et al, 2012) in conjunction with referencing of appropriate internal standards: ceramide d18:1/17:0 and sphingomyelin d18:1/12:0 (Avanti Polar Lipids, Alabaster, Ala., USA). Values are represented as mole fraction with respect to total lipid (% molarity). For this, lipid mass (in moles) of any specific lipid is normalized by the total mass (in moles) of all the lipids measured (Chan et al, 2012). In addition, all of our results were further normalized by protein content.

Test [9] has as its system mitochondrial respiratory supercomplexes. In words: Supercomplex analysis (blue-native gels, in-gel activity and western blot). The format is cell-based, mouse. The procedure: Analysis and quantification of mitochondrial respiratory complexes by western blot and enzymatic in-gel activity were carried out as previously reported (Acin-Perez et al., 2008)
Analysis and quantification of mitochondrial respiratory complexes by Western blot and enzymatic in-gel activity were carried out as described (Acin-Perez et al, 2008).

Test [10] concerns WT MEFs and presenilin-mutant (PS-DKO) cells. The experiment in a line: Filipin staining of free cholesterol. It is filed as cell-based, mouse. To be noted: presenilin-mutant (PS-DKO) cells; CsA 100 nM; SSO 250 nM. On the procedure: Cells were washed in PBS and fixed in 3% paraformaldehyde at room temperature for 1 h. After washing in PBS three times, samples were incubated in 1.5 mg/ml glycine in 1×PBS to quench the paraformaldehyde and then incubated in 0.05 mg/ml of filipin in PBS/10% FBS for 2 h at room temperature. Free cholesterol signal was visualized in by microscopy and quantified by ImageJ.

Test [11] has as its system APP-DKO cells. The experiment in a line: Seahorse analysis of mitochondrial respiration (OCR). It is filed as cell-based, mouse. To be noted: WT and APP-DKO cells, Aβ42 oligomers 0, 5, 10 μM, 24 h, effect only at 10 μM. On the procedure: as §1
To analyze the effect of Aβ addition, a mix of Aβ40/Aβ42 at a ratio 10:1 was added to the cultured cells to a final concentration of 6000 pg/ml for 24 h. For Aβ42 oligomer formation, 5 mM of Aβ42 in DMSO was diluted to 100 μM in ice-cold media, vortexed for 30 seconds, and incubated at 4° C. for 24 h. Aβ42 Oligomers were added to the cultured cells to a final concentration of 5 or 10 μM for 24 h.
as §2
To analyze the effect of Aβ addition, a mix of Aβ40/Aβ42 at a ratio 10:1 was added to the cultured cells to a final concentration of 6,000 pg/ml for 24 h. For Aβ42 oligomer formation, 5 mM of Aβ42 in DMSO was diluted to 100 μM in ice-cold media, vortexed for 30 s, and incubated at 4° C. for 24 h. […]

“Also recorded” adds a separate entry of the source. Structures can show the parent of a compound that is named as a salt.

Turning to `CCCCCCCC[C@H](SCCCCCC)C(=O)Nc1c(SC)cc(C)nc1SC` [CP-113,818], the Aβ result in [1] was “reduces Aβ”.

Turning to `CC(C)(C)NCC(O)c1cc(Cl)c(N)c(Cl)c1` (centres unmarked) [Clenbuterol], in test [1] (Chai, G-s. et al.), the “Thr668p (APP phosphorylated at Thr668)” value was “reduced Thr668p” and the α-secretase entry is “increased α-secretase”. Further, the Aβ result in [1] is “decreased Aβ”.

Turning to `O=C1[C@H](CC[C@H](O)c2ccc(F)cc2)[C@@H](c2ccc(O)cc2)N1c1ccc(F)cc1` [Ezetimibe], the cognition / memory result in [2] was “improves memory in AD mice”.

As to `O=C(/C=C/c1ccc(/C=C/C(=O)Nc2ccc(C3=NCCN3)cc2)cc1)Nc1ccc(C2=NCCN2)cc1` [GW4869], the “number of lipid droplets (LDs)” value in [3] was “reduced the accumulation of lipid droplets in PS-DKO cells to near-control levels; also recorded: reduced lipid droplet formation”.

In the case of `Cc1ccc(NC(=O)c2ccc(CN3CCN(C)CC3)cc2)cc1Nc1nccc(-c2cccnc2)n1` [Gleevec, imatinib mesylate], the “number of lipid droplets (LDs)” value in test [3] is on record as “significant reduction of LDs”.

Turning to `CC1CC(C)(C)N(C(=O)CN2C(=O)c3ccccc3C2=O)c2ccccc21` (centres unmarked) [ML-SA1], in [4], the “TRPML1-mediated lysosomal Ca2+ release” value is given as “enhances TRPML1-mediated lysosomal Ca^2+ release” and the cholesterol entry was “reduces cholesterol”.

In the case of `O=C(O)CCCc1ccccc1` [PBA, phenylbutyric acid], in test [2], the cholesterol defects result is reported as “rescues cholesterol defects”; the cognition / memory result was “rescues cholesterol defects [4-6] and cognition”. In addition, the “α- and γ-cleavage of APP” value in [1] (reference [1]) was “stimulates both α- and γ-cleavage of APP”.

As for `COCCOc1ccc(N2CCN(CCn3ncc4c3nc(N)n3nc(-c5ccco5)nc43)CC2)cc1` [Preladenant], in test [5], the Aβ42 entry is on record as “increased Aβ42” and the γ-secretase activity result is given as “increased γ-secretase activity”.

With `CC(C)C[C@H](CC(=O)NO)C(=O)N[C@@H](Cc1ccc2ccccc2c1)C(=O)N[C@@H](C)C(=O)NCCN` [TAPI-1], the “mitochondrial respiration (initial oxygen consumption rate, OCR)” value in [6] is “unaffected”.

In the case of `COc1ccc(N2CCOCC2)c2sc(NC(=O)N3CCC(C)(O)CC3)nc12` [Tozadenant], in test [5], the Aβ42 entry was “increased Aβ42” and the γ-secretase activity result is reported as “increased γ-secretase activity”.

On to `CNCCCN1c2ccccc2CCc2ccccc21` [desipramine], for which the “Aβ42:Aβ40 ratio” value is given as “reduced the Aβ42:Aβ40 ratio” in test [7] and “significantly reduced the Aβ42:Aβ40 ratio” in test [7] (listed as Desipramine). In addition, in test [3], the “number of lipid droplets (LDs)” value is “reduced the accumulation of lipid droplets in PS-DKO cells to near-control levels; also recorded: reduced lipid droplet formation”.

As for `CCCCCCC(=O)CCCCCC/C=C/C[C@@H](O)[C@H](O)[C@@](N)(CO)C(=O)O` [myriocin], in test [8], the ceramide levels result was “significant reductions in ceramide content” and the sphingomyelin levels entry is listed as “slight decreases in sphingomyelin”. Besides, the “activity of supercomplexes I+III+IV, I+III and III+IV (in-gel complex I and IV activity)” value in [9] (mitochondria from PS-DKO cells incubated with BI or myriocin) is “rescued”. In addition, in test [9] (mitochondria from PS-DKO cells, anti-complex I and III antibodies), the “assembly of respiratory supercomplexes (blue-native PAGE western blot)” value is “increases the assembly of supercomplexes I+III and I+III+IV”. The “mitochondrial respiration (initial oxygen consumption rate, OCR)” value in test [6] was “reversed the respiratory defect; also recorded: rescued the bioenergetic defect; also recorded: reversed the bioenergetic deficits in these cells”.

For the compound `CCCCCCCC/C=C\CCCCCCCC(=O)ON1C(=O)CC(S(=O)(=O)O)C1=O` (centres unmarked) [sulfo-N-succinimidyl oleate], the “free cholesterol levels (filipin staining)” value in [10] was “reduces cholesterol levels in presenilin-mutant cells; also recorded: equally marked reduction in cellular free cholesterol”.

Consider “Aβ42 oligomers: oligomers formed from synthetic Aβ42 peptide, added at 5 or 10 μM”, for which the “mitochondrial respiration (OCR)” value in test [11] is “slightly decreased”; in test [11] (listed as Aβ oligomers), “had little effect on respiration”.

As to cyclosporin A, the “free cholesterol levels (filipin staining)” value in test [10] is listed as “reduces cholesterol levels in presenilin-mutant cells; also recorded: the increased level of cholesterol seen in PS-mutant cells was reversed”.

(Values after patent US11266626B2, “Reduction of ER-MAM-localized APP-C99 and methods of treating alzheimer's disease” (THE TRUSTEES OF COLUMBIA UNIVERSITY IN THE CITY OF NEW YORK, priority 2015, dated 2022).)
